In patent US20060258738A1, “Use of dronabinol for treatment of side effects of Hepatitis C therapy” (priority 2005, published 2006):

Legend:
[1] = Retrospective chart review: adverse events, tolerability and discontinuation of dronabinol
[2] = tested on: GI side effects (nausea/vomiting, anorexia and weight loss) related to anti-HCV therapy; test: Retrospective chart review: open label dronabinol for GI side effects of anti-HCV therapy, positive response; type: in vivo, human; conditions: whole cohort
Protocol: A retrospective chart review of 22 patients with chronic HCV receiving IFN (Pegylated n=18, standard n=4) and RBV was performed. All were receiving open label dronabinol for specific GI side effects (nausea/vomiting, anorexia and weight loss) related to anti-HCV therapy. Over half the cohort (13/22) were co-infected with HIV. Demographic, clinical, and virological data was recorded at baseline (pre dronabinol therapy); Body Mass Index (BMI) was calculated at baseline, and at the end of dronabinol therapy.
A positive response to dronabinol was defined as follows: […]
Subjective: Documentation in chart of improvement in symptoms of nausea, vomiting or anorexia, as reported by patient.
Objective: No change or increase in BMI at end of dronabinol treatment compared to baseline.

CCCCCc1cc(O)c2c(c1)OC(C)(C)[C@@H]1CCC(C)=C[C@@H]21 [dronabinol, delta-9-tetrahydrocannabinol]
Tolerability ([1]; the 4 members of the cohort aged 60 or greater): well tolerated
Tolerability ([1]; whole cohort, including those with HIV/HCV): well-tolerated by the majority of the cohort
Positive outcome, both for improvement in symptoms and stabilization or increase in BMI [2]: over 40%
